Laboratory results reported in ChEMBL document CHEMBL4342507, “Targeting YAP Degradation by a Novel 1,2,4-Oxadiazole Derivative via Restoration of the Function of the Hippo Pathway” (ACS Med Chem Lett, 2020).
Active and inactive are the calls of the source.

Legend:
[1] = molecular target: T1, Serine/threonine-protein kinase LATS1 (Homo sapiens) (UniProt O95835); assay: Activation of LATS1 in triple-negative human SUM159 cells transfected with YAP/TAZ-TEAD reporter plasmid containing 8xGTIIC binding site and cotransfected with pCMV-Luc assessed as suppression of YAP/TAZ luciferase activity measured after 12 hrs by dual luciferase reporter assay
T1 sequence (whole entry): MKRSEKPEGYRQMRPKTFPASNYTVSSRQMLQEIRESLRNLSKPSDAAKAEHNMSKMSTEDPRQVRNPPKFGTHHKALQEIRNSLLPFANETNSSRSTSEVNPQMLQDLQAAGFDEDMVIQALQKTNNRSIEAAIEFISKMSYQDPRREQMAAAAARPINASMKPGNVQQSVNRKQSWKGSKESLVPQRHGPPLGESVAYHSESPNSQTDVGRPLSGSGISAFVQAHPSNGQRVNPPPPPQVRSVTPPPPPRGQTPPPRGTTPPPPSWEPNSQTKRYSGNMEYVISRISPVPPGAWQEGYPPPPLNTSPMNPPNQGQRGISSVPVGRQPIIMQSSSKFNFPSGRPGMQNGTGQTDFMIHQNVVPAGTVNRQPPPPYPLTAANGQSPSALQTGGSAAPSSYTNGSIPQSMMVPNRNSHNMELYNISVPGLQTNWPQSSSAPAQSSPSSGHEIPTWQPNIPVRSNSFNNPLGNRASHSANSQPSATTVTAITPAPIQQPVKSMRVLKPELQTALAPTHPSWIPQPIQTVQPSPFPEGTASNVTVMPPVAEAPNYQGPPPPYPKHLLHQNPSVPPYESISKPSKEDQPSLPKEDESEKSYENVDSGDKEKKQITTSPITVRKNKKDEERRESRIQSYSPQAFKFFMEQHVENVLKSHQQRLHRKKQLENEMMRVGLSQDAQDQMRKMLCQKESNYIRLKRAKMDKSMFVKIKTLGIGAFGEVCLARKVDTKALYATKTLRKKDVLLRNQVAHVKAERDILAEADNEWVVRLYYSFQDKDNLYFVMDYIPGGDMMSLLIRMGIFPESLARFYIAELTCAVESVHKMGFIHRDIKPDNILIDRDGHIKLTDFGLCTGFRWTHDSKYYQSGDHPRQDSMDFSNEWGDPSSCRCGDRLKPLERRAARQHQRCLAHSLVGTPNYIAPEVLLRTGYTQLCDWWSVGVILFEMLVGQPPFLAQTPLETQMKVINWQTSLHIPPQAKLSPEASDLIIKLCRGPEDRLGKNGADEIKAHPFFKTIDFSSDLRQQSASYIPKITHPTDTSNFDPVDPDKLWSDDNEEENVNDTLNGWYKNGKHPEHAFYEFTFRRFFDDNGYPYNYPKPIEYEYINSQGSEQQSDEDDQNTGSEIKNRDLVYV

[2] = molecular target: T1, Serine/threonine-protein kinase LATS1 (Homo sapiens); assay: Activation of LATS1 in triple-negative human SUM159 cells assessed as effect on YAP mRNA level at 0.25 to 1 uM measured after 12 hrs by Trizol reagent based RT-PCR analysis
[3] = molecular target: T1, Serine/threonine-protein kinase LATS1 (Homo sapiens); assay: Activation of LATS1 in triple-negative human SUM159 cells assessed as induction of YAP degradation by measuring suppression of YAP protein expression at 0.25 to 1 uM measured after 12 hrs in presence of 10 uM proteosomal inhibitor, MG132 by Western blot analysis
[4] = tested on: PC-9; assay: Cytotoxicity against human PC9 cells assessed as reduction in cell viability measured after 72 hrs by MTT assay; format: functional, cell-based
[5] = tested on: SUM-159-PT; assay: Downregulation of TAZ protein expression in human SUM159 cells at 0.25 to 1.5 uM measured after 12 to 24 hrs by immunoblotting analysis; format: functional, cell-based
[6] = molecular target: T1, Serine/threonine-protein kinase LATS1 (Homo sapiens); assay: Activation of LATS1 in human PC3 cells assessed as increase in phosphorylation at Thr1079 residue measured after 24 hrs by Western blot analysis; format: cell-based
[7] = molecular target: T2, Serine/threonine-protein kinase 3/4 (Homo sapiens) (UniProt Q13043+Q13188); assay: Activation of MST1/2 in human SUM159 cells assessed as effect on phosphorylation at T183/T180 residues at 0.25 to 1.5 uM measured after 12 hrs by Western blot analysis; format: cell-based
[8] = molecular target: T2, Serine/threonine-protein kinase 3/4 (Homo sapiens); assay: Activation of MST1/2 in human PC3 cells assessed as effect on phosphorylation at T183/T180 residues at 0.25 to 1.5 uM measured after 24 hrs by Western blot analysis; format: cell-based
[9] = Acute toxicity in athymic Nude-Foxn1nu BALB/c mouse xenografted with human MDA-MB-231 cells assessed as effect on serum AST level at 200 mg/kg, po administered once daily via gavage for 14 days; format: organism-based; settings: in vivo, 336 h
[10] = Acute toxicity in athymic Nude-Foxn1nu BALB/c mouse xenografted with human MDA-MB-231 cells assessed as effect on serum albumin level at 200 mg/kg, po administered once daily via gavage for 14 days; format: organism-based; settings: in vivo, 336 h
[11] = Acute toxicity in athymic Nude-Foxn1nu BALB/c mouse xenografted with human MDA-MB-231 cells assessed as effect on blood urea nitrogen level at 200 mg/kg, po administered once daily via gavage for 14 days; format: organism-based; settings: in vivo, 336 h
[12] = tested on: Mus musculus; assay: Downregulation of C-myc protein expression in tumor of athymic Nude-Foxn1nu BALB/c mouse xenografted with human MDA-MB-231 cells at 200 mg/kg, po administered once daily via gavage for 40 days by immunoblotting analysis; format: functional, organism-based
[13] = tested on: Mus musculus; assay: Downregulation of cyclin D1 protein expression in tumor of athymic Nude-Foxn1nu BALB/c mouse xenografted with human MDA-MB-231 cells at 200 mg/kg, po administered once daily via gavage for 40 days by immunoblotting analysis; format: functional, organism-based
[14] = molecular target: Epidermal growth factor receptor (Homo sapiens) (UniProt P00533); assay: Induction of EGFR degradation in human MDA-MB-231 cells assessed as suppression of EGFR expression at 0.1 to 0.8 uM by Western blot analysis; format: cell-based
[15] = molecular target: Hepatocyte growth factor receptor (Homo sapiens) (UniProt P08581); assay: Induction of c-MET degradation in human MDA-MB-231 cells assessed as suppression of c-MET expression at 0.1 to 0.8 uM by Western blot analysis; format: cell-based
[16] = tested on: MCF7; assay: Cytostatic activity against human MCF7 cells assessed as cell viability at concentration of greater than IC50 measured up to 72 hrs by MTT assay; format: functional, cell-based
[17] = molecular target: T1, Serine/threonine-protein kinase LATS1 (Homo sapiens); assay: Activation of LATS1 in human SUM159 cells assessed as induction of YAP degradation by measuring suppression of YAP protein expression at 0.25 to 1.5 uM measured after 12 to 24 hrs by immunoblotting analysis; format: cell-based
[18] = molecular target: T1, Serine/threonine-protein kinase LATS1 (Homo sapiens); assay: Activation of LATS1 in human PC9 cells assessed as induction of YAP degradation by measuring suppression of YAP protein expression at 0.25 to 1.5 uM measured after 12 to 24 hrs by immunoblotting analysis; format: cell-based
[19] = tested on: SUM-159-PT; assay: Effect on MOB expression in human SUM159 cells at 0.25 to 1.5 uM measured after 12 hrs by Western blot analysis; format: functional, cell-based
[20] = tested on: MDA-MB-231; assay: Effect on MOB expression in human MDA-MB-231 cells at 0.25 to 1.5 uM measured after 24 hrs by Western blot analysis; format: functional, cell-based

T2 sequence (Q13043 whole entry, looked up): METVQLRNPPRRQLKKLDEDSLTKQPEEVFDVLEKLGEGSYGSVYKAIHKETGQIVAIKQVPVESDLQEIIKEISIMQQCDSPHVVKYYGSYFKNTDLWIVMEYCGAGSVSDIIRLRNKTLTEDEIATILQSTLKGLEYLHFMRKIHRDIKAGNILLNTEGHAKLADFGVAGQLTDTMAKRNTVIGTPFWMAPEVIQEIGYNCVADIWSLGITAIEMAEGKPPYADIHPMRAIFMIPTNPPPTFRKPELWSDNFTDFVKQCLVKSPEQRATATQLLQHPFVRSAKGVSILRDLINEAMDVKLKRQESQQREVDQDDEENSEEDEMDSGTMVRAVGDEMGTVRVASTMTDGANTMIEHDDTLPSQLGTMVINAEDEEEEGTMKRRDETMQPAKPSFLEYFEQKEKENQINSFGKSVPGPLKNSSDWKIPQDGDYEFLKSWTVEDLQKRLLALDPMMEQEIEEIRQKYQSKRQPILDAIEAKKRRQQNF
T2 sequence (Q13188 whole entry, looked up): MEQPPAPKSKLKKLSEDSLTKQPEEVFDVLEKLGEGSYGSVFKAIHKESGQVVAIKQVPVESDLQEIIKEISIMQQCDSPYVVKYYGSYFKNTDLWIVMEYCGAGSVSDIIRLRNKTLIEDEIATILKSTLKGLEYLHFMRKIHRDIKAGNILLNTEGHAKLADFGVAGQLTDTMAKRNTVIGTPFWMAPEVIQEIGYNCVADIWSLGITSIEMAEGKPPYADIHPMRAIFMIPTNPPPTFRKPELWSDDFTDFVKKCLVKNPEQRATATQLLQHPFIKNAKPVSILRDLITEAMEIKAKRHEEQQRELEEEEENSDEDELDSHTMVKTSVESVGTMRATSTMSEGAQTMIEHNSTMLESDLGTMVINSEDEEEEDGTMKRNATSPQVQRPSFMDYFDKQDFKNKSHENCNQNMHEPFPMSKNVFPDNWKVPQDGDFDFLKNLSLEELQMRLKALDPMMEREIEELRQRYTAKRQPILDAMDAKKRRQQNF
Sequence of Epidermal growth factor receptor (Homo sapiens) (P00533 whole entry): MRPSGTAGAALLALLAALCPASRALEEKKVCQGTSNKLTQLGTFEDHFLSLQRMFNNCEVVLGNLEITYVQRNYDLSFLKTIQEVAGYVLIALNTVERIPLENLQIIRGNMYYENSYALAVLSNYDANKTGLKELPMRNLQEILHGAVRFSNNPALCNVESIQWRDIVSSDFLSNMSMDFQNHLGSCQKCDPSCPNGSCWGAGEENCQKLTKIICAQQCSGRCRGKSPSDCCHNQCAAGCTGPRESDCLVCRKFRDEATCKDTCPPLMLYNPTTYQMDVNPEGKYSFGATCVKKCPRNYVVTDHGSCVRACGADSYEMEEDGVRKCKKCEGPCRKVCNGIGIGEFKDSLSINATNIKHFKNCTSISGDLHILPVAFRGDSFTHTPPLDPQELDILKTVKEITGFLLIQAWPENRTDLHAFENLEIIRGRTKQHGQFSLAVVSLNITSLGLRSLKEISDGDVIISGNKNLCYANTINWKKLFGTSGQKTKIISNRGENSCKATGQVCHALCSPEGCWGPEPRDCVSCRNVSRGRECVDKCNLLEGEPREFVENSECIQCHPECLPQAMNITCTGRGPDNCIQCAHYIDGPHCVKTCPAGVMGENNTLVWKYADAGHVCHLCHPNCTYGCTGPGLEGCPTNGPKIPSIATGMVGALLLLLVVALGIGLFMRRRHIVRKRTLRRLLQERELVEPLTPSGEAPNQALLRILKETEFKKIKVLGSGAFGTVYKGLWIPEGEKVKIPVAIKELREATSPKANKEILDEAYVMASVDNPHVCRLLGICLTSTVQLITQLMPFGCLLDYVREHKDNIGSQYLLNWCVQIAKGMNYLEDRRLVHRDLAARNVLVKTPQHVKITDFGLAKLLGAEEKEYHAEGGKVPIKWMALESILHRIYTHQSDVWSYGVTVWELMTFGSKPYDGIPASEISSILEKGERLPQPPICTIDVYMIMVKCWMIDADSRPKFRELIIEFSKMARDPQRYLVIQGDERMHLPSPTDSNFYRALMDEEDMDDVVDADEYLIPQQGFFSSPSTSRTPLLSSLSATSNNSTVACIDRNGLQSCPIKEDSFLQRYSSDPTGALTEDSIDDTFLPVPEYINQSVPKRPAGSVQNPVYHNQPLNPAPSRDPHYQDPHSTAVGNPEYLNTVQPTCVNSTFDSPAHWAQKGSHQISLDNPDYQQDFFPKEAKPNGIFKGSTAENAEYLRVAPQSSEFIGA
Sequence of Hepatocyte growth factor receptor (Homo sapiens) (P08581 whole entry): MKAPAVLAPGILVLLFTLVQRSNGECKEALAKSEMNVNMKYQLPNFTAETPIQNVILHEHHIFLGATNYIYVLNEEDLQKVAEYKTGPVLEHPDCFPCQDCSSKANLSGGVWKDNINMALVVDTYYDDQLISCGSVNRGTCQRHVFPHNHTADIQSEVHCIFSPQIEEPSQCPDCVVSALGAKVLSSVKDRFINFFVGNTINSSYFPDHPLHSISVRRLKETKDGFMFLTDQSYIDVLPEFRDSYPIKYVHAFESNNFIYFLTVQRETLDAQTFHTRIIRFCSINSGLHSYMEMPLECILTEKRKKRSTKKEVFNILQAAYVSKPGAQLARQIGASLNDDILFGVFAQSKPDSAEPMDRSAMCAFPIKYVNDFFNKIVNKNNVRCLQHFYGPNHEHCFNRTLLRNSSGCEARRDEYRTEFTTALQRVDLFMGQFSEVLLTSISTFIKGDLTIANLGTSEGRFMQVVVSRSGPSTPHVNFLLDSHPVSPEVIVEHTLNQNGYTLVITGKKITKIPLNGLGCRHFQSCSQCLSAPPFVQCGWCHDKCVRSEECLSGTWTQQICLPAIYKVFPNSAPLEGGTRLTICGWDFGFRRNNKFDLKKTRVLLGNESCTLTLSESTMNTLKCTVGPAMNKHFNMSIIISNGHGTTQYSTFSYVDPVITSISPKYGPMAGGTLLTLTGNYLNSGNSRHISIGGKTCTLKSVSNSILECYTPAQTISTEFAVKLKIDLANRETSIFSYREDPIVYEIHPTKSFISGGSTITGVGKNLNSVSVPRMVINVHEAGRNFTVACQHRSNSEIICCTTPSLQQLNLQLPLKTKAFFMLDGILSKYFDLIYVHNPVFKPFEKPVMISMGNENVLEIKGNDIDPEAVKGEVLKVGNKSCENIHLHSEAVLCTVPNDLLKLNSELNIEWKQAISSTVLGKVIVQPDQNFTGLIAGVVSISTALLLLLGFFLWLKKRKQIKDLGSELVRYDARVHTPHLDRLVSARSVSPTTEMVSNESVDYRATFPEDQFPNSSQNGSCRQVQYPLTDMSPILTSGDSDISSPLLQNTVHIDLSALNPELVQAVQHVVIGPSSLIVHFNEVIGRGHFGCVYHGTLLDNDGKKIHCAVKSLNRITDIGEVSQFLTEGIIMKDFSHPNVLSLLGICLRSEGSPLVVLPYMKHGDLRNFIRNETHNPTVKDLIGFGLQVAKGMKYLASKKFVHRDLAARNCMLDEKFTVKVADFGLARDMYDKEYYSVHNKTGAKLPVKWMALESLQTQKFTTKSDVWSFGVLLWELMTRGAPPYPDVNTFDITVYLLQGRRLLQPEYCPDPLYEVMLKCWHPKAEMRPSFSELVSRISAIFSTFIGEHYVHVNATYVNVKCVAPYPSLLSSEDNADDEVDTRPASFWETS

CC(=O)Nc1ccc(NC(=O)Nc2cccc(-c3nc(-c4ccc(NC(=O)c5cccnc5)cc4Cl)no3)c2)cc1C(F)(F)F
inactive: Activity [2] | Activity [3] | Activity [7] | Activity [8] | Activity [14] | Activity [15] | Activity [19] | Activity [20]
Non-Toxic: Activity [9] | Activity [10] | Activity [11]
active: Activity [1] Dose-dependent effect | Activity [4] Dose-dependent effect | inhibition [5] | Activity [6] Dose-dependent effect | inhibition [12] | inhibition [13] | Activity [16] | Activity [17] | Activity [18]
400 to 800 nM: IC50 ([4]; PC-9, 72 h)
